Numbers after ± are expanded uncertainties.
Legend:
[1] = 298.15 K; 101.33 kPa; Liquid; Vibrating tube method
[2] = xn = mol fraction of the nth substance listed; conditions: 298.15 K, 100 kPa, Liquid, Vibrating tube method

mass density [1] [kg/m3]	Structure (SMILES)	also measured
1014.47 ± 6	CCCC[N+]1(C)CCCC1.N#CN=C=[N-] [1-butyl-1-methylpyrrolidinium dicyanamide]	
	CCCC[N+]1(C)CCCC1.N#CN=C=[N-] [1-butyl-1-methylpyrrolidinium dicyanamide] + CCCCCCCC	mass density ([2]; x2 = 0.01): 1012.4 ± 6.1 kg/m3
	CCCC[N+]1(C)CCCC1.N#CN=C=[N-] [1-butyl-1-methylpyrrolidinium dicyanamide] + c1ccccc1	mass density ([2]; x2 = 0.706): 964.75 ± 6.2 kg/m3
873.71 ± 2	c1ccccc1 [benzene]	
726.15 ± 2	CCCCCCCCCC [decane]	
698.86 ± 2	CCCCCCCC [octane]	

Reference: the NIST ThermoML archive (doi:10.1016/j.jct.2015.11.016)
